Laboratory results taken from patent US10519162B2, “6,7-dihydropyrazolo[1,5-α]pyrazin-4(5H)-one compounds and their use as negative allosteric modulators of mGluR2 receptors” (Janssen Pharmaceutica NV, priority 2014, dated 2019).

How the values were obtained:
human mGlu2 receptor = target: T1, human mGlu2 receptor (Homo sapiens, UniProt Q14416); test: [35S]GTPγS binding assay (mGluR2 negative allosteric modulation, glutamate ~EC80 60 μM); type: biochemical; conditions: for Emax: maximal % inhibition relative to the control glutamate response (EC80 glutamate), read-out: GTPγS-hmGluR2 anGT Emax; for IC50: membranes from CHO cells transfected with human mGlu2 receptor, glutamate ~EC80 (60 μM), pIC50 = −log IC50 (M), read-out: GTPγS-hmGluR2 anGT pIC50 (converted)
T1 construct: expressed in transfected cells; host or cells: CHO cells
Procedure: 1) [^35S]GTPγS Binding Assay
[^35S]GTPγS Binding Assay
Total reaction volume was 200 μl. […] Membrane-bound radioactivity was counted in a Topcount.

T1 sequence (Q14416 19-872): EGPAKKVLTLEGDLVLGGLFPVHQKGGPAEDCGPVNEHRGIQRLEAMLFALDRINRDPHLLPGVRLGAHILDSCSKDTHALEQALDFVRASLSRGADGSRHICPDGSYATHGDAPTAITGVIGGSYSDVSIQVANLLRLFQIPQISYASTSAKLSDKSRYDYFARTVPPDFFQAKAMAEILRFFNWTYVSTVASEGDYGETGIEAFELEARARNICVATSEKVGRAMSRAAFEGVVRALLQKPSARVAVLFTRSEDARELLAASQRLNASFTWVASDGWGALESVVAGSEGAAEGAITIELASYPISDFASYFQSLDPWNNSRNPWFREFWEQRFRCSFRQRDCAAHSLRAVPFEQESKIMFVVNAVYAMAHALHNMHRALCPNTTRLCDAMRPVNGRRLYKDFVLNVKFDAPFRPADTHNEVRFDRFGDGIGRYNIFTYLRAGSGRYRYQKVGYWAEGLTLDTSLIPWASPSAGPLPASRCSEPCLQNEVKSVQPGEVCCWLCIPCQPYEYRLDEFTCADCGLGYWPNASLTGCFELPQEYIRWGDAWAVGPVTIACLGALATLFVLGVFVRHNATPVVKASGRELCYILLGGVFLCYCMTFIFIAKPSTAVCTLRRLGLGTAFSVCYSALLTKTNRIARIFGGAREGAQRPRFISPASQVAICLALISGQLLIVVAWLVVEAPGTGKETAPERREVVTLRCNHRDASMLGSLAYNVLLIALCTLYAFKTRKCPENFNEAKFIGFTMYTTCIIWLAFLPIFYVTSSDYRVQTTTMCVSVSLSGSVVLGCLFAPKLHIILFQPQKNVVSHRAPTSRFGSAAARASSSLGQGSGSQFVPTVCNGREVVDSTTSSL

Emax (human mGlu2 receptor)	IC50 (human mGlu2 receptor)	melting point	SMILES
101%	6.31e-07 M	142.82 °C	CC(=O)Nc1cnn2c1C(=O)N(c1ccc(C(F)(F)F)cc1)C[C@@H]2C [Co. No. 160, N-[(7S)-7-methyl-4-oxo-5-[4-(trifluoromethyl)phenyl]-6,7-dihydropyrazolo[1,5-a]pyrazin-3-yl]acetamide]
–	–	174.32 °C	Cc1cc(N2C[C@H](C)n3ncc(NC(=O)c4cccnc4N)c3C2=O)ccc1Cl [Co. No. 208]
104%	1.78e-08 M	198.98 °C	Cc1ccc(C(=O)Nc2cnn3c2C(=O)N(c2ccc(C(F)(F)F)cc2)C[C@@H]3C)cc1 [Co. No. 53]
117%	7.59e-09 M	250.03 °C	COc1nc(N2C[C@H](C)n3ncc(NC(=O)c4ccc(N)nc4)c3C2=O)ccc1C(F)(F)F [Co. No. 33]
–	–	230.4 °C	COCC1CN(c2ccc(C(F)(F)F)c(Cl)c2)C(=O)c2c(NC(=O)c3ccc(N)nc3)cnn21 (centres unmarked) [Co. No. 141]
105%	1.1e-08 M	127.02 °C	COc1ccc(C(=O)Nc2cnn3c2C(=O)N(c2ccc(C(F)(F)F)cc2)C[C@@H]3C)cn1 [Co. No. 42]
103%	1.91e-07 M	167.59 °C	C[C@H]1CN(c2ccc(C(F)(F)F)cc2)C(=O)c2c(NC(=O)c3cnn(C)c3)cnn21 [Co. No. 86]
108%	2.29e-09 M	154.53 °C	Cc1cc(N2C[C@H](C)n3ncc(NC(=O)c4ccccc4)c3C2=O)ccc1C(F)(F)F [Co. No. 7]
109%	1.05e-08 M	–	COc1cccc(F)c1C(=O)Nc1cnn2c1C(=O)N(c1ccc(C(F)(F)F)cc1)C[C@@H]2C [Co. No. 41]
–	–	230.27 °C	COCC1CN(c2ccc(C(F)(F)F)c(Cl)c2)C(=O)c2c(NC(=O)c3ccc(N)nc3)cnn21 (centres unmarked) [Co. No. 140]
98%	4.57e-07 M	272.72 °C	C[C@H]1CN(c2ccc(C(F)(F)F)cc2)C(=O)c2c(NC(=O)c3c[nH]c(N)n3)cnn21 [Co. No. 94, 2-Amino-N-[(7S)-7-methyl-4-oxo-5-[4-(trifluoromethyl)phenyl]-6,7-dihydropyrazolo[1,5-a]pyrazin-3-yl]-1H-imidazole-4-carboxamide]
109%	2.63e-08 M	204.97 °C	C[C@H]1CN(c2ccc(C(F)(F)F)cc2)C(=O)c2c(NC(=O)c3ncco3)cnn21 [Co. No. 63, N-[(7S)-7-Methyl-4-oxo-5-[4-(trifluoromethyl)phenyl]-6,7-dihydropyrazolo[1,5-a]pyrazin-3-yl]oxazole-2-carboxamide]
112%	4.07e-09 M	130.79 °C	Cc1cc(C(=O)Nc2cnn3c2C(=O)N(c2ccc(C(F)(F)F)c(Cl)c2)C[C@@H]3C)c(C)cn1 [Co. No. 158]
101%	1.29e-08 M	128.68 °C	COc1cc(C(=O)Nc2cnn3c2C(=O)N(c2ccc(C(F)(F)F)cc2)C[C@@H]3C)ccn1 [Co. No. 47]
107%	4.37e-08 M	265.47 °C	Cc1cc(C(=O)Nc2cnn3c2C(=O)N(c2ccc(C(F)(F)F)cc2)C[C@@H]3C)nc(N)n1 [Co. No. 180]
102%	2.82e-08 M	–	C[C@H]1CN(c2ccc(C(F)(F)F)cc2)C(=O)c2c(NC(=O)c3ncccc3F)cnn21 [Co. No. 67]
103%	5.37e-08 M	231.11 °C	COc1ccccc1C(=O)Nc1cnn2c1C(=O)N(c1ccc(C(F)(F)F)c(OC)n1)C[C@@H]2C [Co. No. 75]
109%	3.31e-09 M	172.8 °C	Cc1cncc(C(=O)Nc2cnn3c2C(=O)N(c2ccc(C(F)(F)F)c(Cl)c2)C[C@@H]3C)c1C [Co. No. 133]
105%	2e-08 M	145.26 °C	C[C@H]1CN(c2ccc(C(F)(F)F)cc2)C(=O)c2c(NC(=O)c3ccncc3)cnn21 [Co. No. 55]
104%	6.17e-09 M	164.82 °C	COc1ccc(C(=O)Nc2cnn3c2C(=O)N(c2ccc(C(F)(F)F)cc2)C[C@@H]3C)cc1 [Co. No. 25]
104%	2.29e-08 M	–	C[C@H]1CN(c2ccc(Cl)c(Cl)c2)C(=O)c2c(NC(=O)C(F)(F)F)cnn21 [Co. No. 173, N-[(7S)-5-(3,4-Dichlorophenyl)-7-methyl-4-oxo-6,7-dihydropyrazolo[1,5-a]pyrazin-3-yl]-2,2,2-trifluoro-acetamide]
103%	2.04e-08 M	292.16 °C	Cc1cccnc1C(=O)Nc1cnn2c1C(=O)N(c1ccc(C(F)(F)F)cc1)C[C@@H]2C [Co. No. 57]
97%	3.8e-08 M	243.14 °C	Cc1cc(C(=O)Nc2cnn3c2C(=O)N(c2ccc(C(F)(F)F)cc2)C[C@@H]3C)on1 [Co. No. 71]

Emax (human mGlu2 receptor)	IC50 (human mGlu2 receptor)	melting point	SMILES
101%	1.12e-07 M	277.42 °C	C[C@H]1CN(c2ccc(C(F)(F)F)cc2)C(=O)c2c(NC(=O)c3c[nH]cn3)cnn21 [Co. No. 83]
101%	1.32e-08 M	119.36 °C	C[C@H]1CN(c2ccc(C(F)(F)F)cc2)C(=O)c2c(NC(=O)c3ccc(F)cc3)cnn21 [Co. No. 49]
108%	3.8e-08 M	201.06 °C	COc1nc(N2C[C@H](C)n3ncc(NC(=O)c4ccccc4)c3C2=O)ccc1C(F)(F)F [Co. No. 70]
104%	4.07e-09 M	226.99 °C	COc1cc(N2C[C@H](C)n3ncc(NC(=O)c4cc(C)nc(C)c4)c3C2=O)ccc1C(F)(F)F [Co. No. 125]
102%	5.89e-09 M	–	C[C@H]1CN(c2ccc(C(F)(F)F)cc2)C(=O)c2c(NC(=O)c3ccccn3)cnn21 [Co. No. 24]
109%	1.38e-07 M	–	C[C@H]1CN(c2ccc(C(F)(F)F)cc2)C(=O)c2c(NC(=O)c3cc(N)[nH]n3)cnn21 [Co. No. 84, 5-Amino-N-[(7S)-7-methyl-4-oxo-5-[4-(trifluoromethyl)phenyl]-6,7-dihydropyrazolo[1,5-a]pyrazin-3-yl]-1H-pyrazole-3-carboxamide]
107%	2.4e-09 M	–	C[C@H]1CN(c2ccc(C(F)(F)F)c(CF)c2)C(=O)c2c(NC(=O)c3ccc(N)nc3)cnn21 [Co. No. 5, 6-Amino-N-[(7S)-5-[3-(fluoromethyl)-4-(trifluoromethyl)phenyl]-7-methyl-4-oxo-6,7-dihydropyrazolo[1,5-a]pyrazin-3-yl]pyridine-3-carboxamide]
97%	2.88e-07 M	–	C[C@H]1CN(c2ccc(C(F)(F)F)cc2)C(=O)c2c(NC(=O)c3ccc(N)nn3)cnn21 [Co. No. 90]
–	–	157.37 °C	Cc1cc(C(=O)Nc2cnn3c2C(=O)N(c2ccc(C(F)(F)F)cc2)C[C@@H]3C)cc(CF)n1 (racemic) [Co. No. 209]
105%	6.03e-08 M	–	Cc1nccc(C(=O)Nc2cnn3c2C(=O)N(c2ccc(C(F)(F)F)cc2)C[C@@H]3C)c1C [Co. No. 154]
112%	8.71e-09 M	–	Cc1cc(C(=O)Nc2cnn3c2C(=O)N(c2ccc(Cl)cc2)C[C@@H]3C)cc(C)n1 [Co. No. 132]
105%	2.88e-08 M	–	Cc1cc(C(=O)Nc2cnn3c2C(=O)N(c2ccc(C(F)(F)F)c(Cl)c2)C[C@@H]3C)cnc1NC(C)(C)C [Co. No. 168, 6-(tert-butylamino)-N-[(7S)-5-[3-chloro-4-(trifluoromethyl)phenyl]-7-methyl-4-oxo-6,7-dihydropyrazolo[1,5-a]pyrazin-3-yl]-5-methyl-pyridine-3-carboxamide]
111%	2.69e-08 M	–	COc1nc(N2C[C@H](C)n3ncc(NC(=O)c4ccc(N)nc4)c3C2=O)ccc1Cl [Co. No. 65]
–	–	238.83 °C	C[C@H]1CN(c2ccc(C(F)(F)F)c(CO)c2)C(=O)c2c(NC(=O)c3ccc(N)nc3)cnn21 [Co. No. 165]
107%	1.66e-08 M	–	Cc1cncc(C(=O)Nc2cnn3c2C(=O)N(c2ccc(Cl)cc2)C[C@@H]3C)c1 [Co. No. 131]
101%	1.26e-06 M	–	C[C@H]1CN(c2ccc(C(F)(F)F)cc2)C(=O)c2c(NC(=O)c3ccc(O)nn3)cnn21 [Co. No. 92]
103%	2.82e-07 M	–	Cc1cnc(NC(C)(C)C)c(C(=O)Nc2cnn3c2C(=O)N(c2ccc(C(F)(F)F)c(Cl)c2)C[C@@H]3C)c1 [Co. No. 167, 2-(tert-Butylamino)-N-[(7S)-5-[3-chloro-4-(trifluoromethyl)phenyl]-7-methyl-4-oxo-6,7-dihydropyrazolo[1,5-a]pyrazin-3-yl]-5-methyl-pyridine-3-carboxamide]
–	–	172.9 °C	Cc1cnc(N)c(C(=O)Nc2cnn3c2C(=O)N(c2ccc(SC(F)(F)F)cc2)C[C@@H]3C)c1 [Co. No. 207]
104%	5.5e-09 M	–	Cc1nccc(C(=O)Nc2cnn3c2C(=O)N(c2ccc(C(F)(F)F)c(Cl)c2)C[C@@H]3C)c1C [Co. No. 155]
106%	1.51e-07 M	–	C[C@H]1CN(c2ccc(C(F)(F)F)cc2)C(=O)c2c(NC(=O)c3ncccn3)cnn21 [Co. No. 98]
103%	2.95e-08 M	–	C[C@H]1CN(c2ccc(C(F)(F)F)cc2)C(=O)c2c(NC(=O)c3ccno3)cnn21 [Co. No. 69]
106%	1.86e-08 M	–	Cc1cc(C(=O)Nc2cnn3c2C(=O)N(c2ccc(C(F)(F)F)cc2)C[C@@H]3C)c(C)cn1 [Co. No. 157]
108%	5.89e-10 M	–	Cc1cc(C(=O)Nc2cnn3c2C(=O)N(c2ccc(C(F)(F)F)c(Cl)c2)C[C@@H]3C)cnc1N [Co. No. 169, 6-Amino-N-[(7S)-5-[3-chloro-4-(trifluoromethyl)phenyl]-7-methyl-4-oxo-6,7-dihydropyrazolo[1,5-a]pyrazin-3-yl]-5-methyl-pyridine-3-carboxamide]
